What was measured:
Allodynia caused by PGE2 = assay: inhibitory effect on allodynia caused by intrathecal injection of PGE2; type: in vivo, male ddY mice; conditions: for % of allodynia expression, Allodynia caused by PGE2: mixture of PGE2 (10ng/body) and compound (10ng/body) injected intrathecally, mice, touch-stimulus score 5 min after administration, 100% = all subjects score 2; for anti-allodynia effect (in words): summary of tables 1, 2 and 3 (PGE2- and PGF2α-induced allodynia, mice)
Protocol: (1) an inhibitory effect on allodynia caused by intrathecal injection of PGE2
(§1) Five or six male ddY mice weighing 22± 2 g in a group were used. Under non-anesthesia, the mixture (5µL) of PGE2 (10ng/body) and a compound (10ng/body) with 27-gauge was injected intrathecally with stainless injection needle (0.33 mm, o.d.) between fifth and sixth vertebra lumbar of a mouse, 5. min after administration, to tail from belly side of a mouse was touch-stimulated with brush and allodynia was evaluated by score.
(§2) Score is 0: no changed, 1: escaped from touch-stimulus and squeaked, 2: escaped vigorously from touch-stimulus and squeaked loudly. When All the subjects got score 2, it was evaluated as 100% of allodynia expression.
(§3) For example, When, in six mice, score 0 is one, score 1 is three and score 2 is two, % of allodynia expression is below: ((0×1) + (1×3) + (2×2))/(6×2)× 100 = 58. 3(%) [formula]

[1] = tested on: Allodynia caused by PGF2α; assay: inhibitory effect on allodynia caused by intrathecal injection of PGF2α; type: in vivo, male ddY mice; conditions: mixture of PGF2α (1µg/body) and compound (100ng/body) injected intrathecally, mice, touch-stimulus score 15min after administration
Protocol: as §1, §2, §3
(2) an inhibitory effect on allodynia caused by intrathecal injection of PGF2α
The experiment was the same as (1) with the exception that the mixture of PGF2α (1µg/body) and a compound (100ng/body) was used as administered drug and allodynia was evaluated at 15min after administration.

[2] = toxicity, maximal tolerated dose with oral administration; conditions: in vivo, rat
Protocol: The toxicity of the compounds of the present invention is very low and therefore the compounds may be considered safe for pharmaceutical use. For example, the maximal tolerated dose with oral administration of the compounds of formula (I), (IV) and (VI) was more than 2000 mg/kg in rat.

SMILES	% of allodynia expression, Allodynia caused by PGE2 (Allodynia caused by PGE2)	anti-allodynia effect (in words) (Allodynia caused by PGE2)	% of allodynia expression, Allodynia caused by PGF2α [1]	MTD [2]
O=C(O)CCC/C=C\[C@H]1[C@H]2CC[C@H](C2)[C@@H]1CNS(=O)(=O)c1ccc(F)c(F)c1 [Formula(III), 6-[(1S,2S,3S,4R)-3-(3,4-difluorophenylsulfonylaminomethyl)bicyclo[2.2.1]heptan-2-yl]-5Z-hexenoic acid]	0.0 ± 0.0%	effective	8.3 ± 8.3%	–
O=C(O)CCC/C=C\[C@H]1[C@@H]2CC[C@@H](C2)[C@@H]1CNS(=O)(=O)c1cc(F)ccc1F [Formula(IV), 6-[(1R,2S,3S,4S)-3-(2,5-difluorophenylsulfonylaminomethyl)bicyclo[2.2.1]heptan-2-yl]-5Z-hexenoic acid]	8.3 ± 8.3%	effective	0.0 ± 0.0%	> 2000 mg/kg
O=C(O)CCC/C=C\[C@H]1[C@H]2CC[C@H](C2)[C@@H]1CNS(=O)(=O)c1ccccc1Cl [comparison compound 1, 6-[(1S,2S,3S,4R)-3-(2-chlorophenylsulfonylaminomethyl)bicyclo[2.2.1]heptan-2-yl]-5Z-hexenoic acid, reference compound]	100 ± 0.0%	no effect	91.7 ± 8.3%	–
O=C(O)CCC/C=C\[C@H]1[C@@H]2CC[C@@H](C2)[C@@H]1CNS(=O)(=O)c1ccccc1I [comparison compound 2, 6-[(1R,2S,3S,4S)-3-(2-iodophenylsulfonylaminomethyl)bicyclo[2.2.1]heptan-2-yl]-5Z-hexenoic acid, reference compound]	83.3 ± 10.5%	–	–	–
O=C(O)CCC/C=C\[C@H]1[C@H]2CC[C@H](C2)[C@@H]1CNS(=O)(=O)c1c(Cl)cccc1Cl [comparison compound 3, 6-[(1S,2S,3S,4R)-3-(2,6-dichlorophenylsulfonylaminomethyl)bicyclo[2.2.1]heptan-2-yl]-5Z-hexenoic acid, reference compound]	91.7 ± 8.3%	no effect	–	–
O=C(O)CCC/C=C\[C@H]1[C@@H]2CC[C@@H](C2)[C@@H]1CNS(=O)(=O)c1ccc(F)c(F)c1 [comparison compound 4, 6-[(1R,2S,3S,4S)-3-(3,4-difluorophenylsulfonylaminomethyl)bicyclo[2.2.1]heptan-2-yl]-5Z-hexenoic acid, reference compound]	75.0 ± 11.2%	–	–	–
CC1(C)[C@H]2C[C@H](NS(=O)(=O)Cc3ccccc3)[C@@H](C/C=C\CCCC(=O)O)[C@@H]1C2 [comparison compound 5, 7-[(1S,2S,3S,5R)-3-benzylsulfonylamino-6,6-dimethylbicyclo[3.1.1]heptan-2-yl]-5Z-heptenoic acid, reference compound]	83.3 ± 10.5%	–	83.3 ± 10.5%	–
O=C(O)CCC/C=C\C[C@H]1[C@@H]2CC[C@@H](C2)[C@@H]1NS(=O)(=O)c1ccccc1 [comparison compound 6, reference compound]	90.0 ± 10.0%	–	60.0 ± 10.0%	–
O=C(O)CCC/C=C\[C@H]1[C@H]2CC[C@H](C2)[C@@H]1CNS(=O)(=O)c1ccccc1I [formula (I), 6-[(1S,2S,3S,4R)-3-(2-iodophenylsulfonylaminomethyl)bicyclo[2.2.1]heptan-2-yl]-5Z-hexenoic acid]	8.3 ± 8.3%	–	8.3 ± 8.3%	> 2000 mg/kg
O=C(O)CCC/C=C\[C@H]1[C@H]2CC[C@H](C2)[C@@H]1CNS(=O)(=O)c1ccccc1F [formula (II), 6-[(1S,2S,3S,4R)-3-(2-fluorophenylsulfonylaminomethyl)bicyclo[2.2.1]heptan-2-yl]-5Z-hexenoic acid]	0.0 ± 0.0%	–	8.3 ± 8.3%	–
COc1ccc(S(=O)(=O)N[C@H]2C[C@H]3C[C@@H]([C@@H]2C/C=C\CCCC(=O)O)C3(C)C)cc1 [formula (V), 7-[(1S,2S,3S,5R)-3-(4-methoxybenzenesulfonylamino)-6,6-dimethylbicyclo [3.1.1]heptan-2-yl]-5Z-heptenoic acid]	8.3 ± 8.3%	have activity	8.3 ± 8.3%	–
CC1(C)[C@H]2C[C@H](NS(=O)(=O)c3ccccc3)[C@@H](C/C=C\CCCC(=O)O)[C@@H]1C2 [formula (VI), 7-[(1S,2S,3S,5R)-3-benzenesulfonylamino-6,6-dimethylbicyclo[3.1.1]heptan-2-yl]-5Z-heptenoic acid]	8.3 ± 8.3%	have activity	0.0 ± 0.0%	> 2000 mg/kg

From patent publication EP1201238A1, “SULFONAMIDE DERIVATIVES AND REMEDIES FOR ALLODYNIA” (ONO PHARMACEUTICAL CO., LTD., priority 1999, dated 2001)
